Test results: US5677322A, “Maillard reaction inhibitor” (Otsuka Pharmaceutical Co., Ltd., priority 1993, dated 1997)

Test system: Lysozyme
Assay: Inhibition of Maillard reaction: suppression of lysozyme dimer formation (lysozyme + fructose, SDS-PAGE)
Type: biochemical
Details: inhibition ratio of test compound to aminoguanidine (positive control); lysozyme 10 mg/ml, fructose 100 mM, 0.2M sodium phosphate pH 7.4, 37° C., 3 days; dimer amount by SDS-PAGE
Description: Lysozyme and fructose were dissolved in a buffer solution of 0.2M sodium phosphate (pH 7.4) to respectively give concentrations of 10 mg/ml and 100 mM. After incubating at 37° C. for 3 days, a definite amount of the mixture was taken out and electrophoresed with the use of SDS-PAGE. After the completion of the electrophoresis, the gel was stained with 0.2% Coomassie Brilliant Blue R-250 and the amount of the dimer thus formed was determined.
Each of the test compounds was added before the initiation of the incubation and the effect of suppressing the formation of the dimer was examined at various concentrations, whereby the IC50 value was obtained. As a positive control, aminoguanidine, which is a known glycation inhibitor, was employed and the inhibition ratio of the test compound to aminoguanidine (IC50 of aminoguanidine/IC50 of test compound) was calculated.

| SMILES | IC50 of aminoguanidine/IC50 of test compound |
| --- | --- |
| CC(C)=NN=C1NC(=O)C(Cc2ccc(OCc3cccs3)cc2)N1 (stereo not shown) [Test compound 36, 2-Isopropylidenehydrazono-5-[4-(2-thienylmethoxy)benzyl]imidazolidin-4-one] | 3.5 |
| CC(C)=NN=C1NC(=O)C(Cc2c[nH]c3ccccc23)N1 (stereo not shown) [Test compound 40, 5-(3-Indolylmethyl)-2-isopropylidenehydrazonoimidazolidin-4-one] | 2.6 |
| CC(C)=NN=C1NC(=O)C(Cc2c[nH]c3ccc(O)cc23)N1 (stereo not shown) [Test compound 41, 5-(5-Hydroxy-3-indolylmethyl)-2-isopropylidenehydrazonoimidazolidin-4-one] | 4.5 |
| CC(C)=NN=C1NC(=O)C(Cc2ccc(O)c(O)c2)N1 (stereo not shown) [Test compound 42, 5-(3,4-Dihydroxybenzyl)-2-isopropylidenehydrazonoimidazolidin-4-one] | 78.9 |
| COC(=O)CC1NC(=NN=C(C)C)NC1=O (stereo not shown) [Test compound 43, 2-Isopropylidenehydrazono-5-methoxycarbonylmethylimidazolidin-4-one] | 5.4 |
| CC(C)=NN=C1NC(=O)C(CC(=O)OCc2ccccc2)N1 (stereo not shown) [Test compound 44, 5-Benzyloxycarbonylmethyl-2-isopropylidenehydrazonoimidazolidin-4-one] | 5.2 |
| CC(C)=NN=C1NC(=O)C(CC(=O)O)N1 (stereo not shown) [Test compound 45, 5-Carboxymethyl-2-isopropylidenehydrazonoimidazolidin-4-one] | 4.8 |
| CC(C)=NN=C1NC(=O)C(CC(=O)Nc2ccccc2)N1 (stereo not shown) [Test compound 46, 2-Isopropylidenehydrazono-5-(N-phenylcarbamoylmethyl)imidazolidin-4-one] | 5.7 |
| CC(C)=NN=C1NC(=O)C(Cc2ccc(OCc3cccnc3)cc2)S1 (stereo not shown) [Test compound 48, 2-Isopropylidenehydrazono-5-[4-(3-pyridylmethoxy)benzyl]thiazolidin-4-one] | 11.0 |
| CC(C)=NN=C1NC(=O)C(CC(=O)Nc2ccc(F)c(F)c2)S1 (stereo not shown) [Test compound 49, 5-[N-(3,4-difluorophenyl)carbamoylmethyl]-2-isopropylidenehydrazonothiazolidin-4-one] | 7.4 |
| CC(C)=NN=C1NC(=O)C(CC(=O)Nc2ccc(OCc3ccccc3)cc2)S1 (stereo not shown) [Test compound 50, 5-[N-(4-benzyloxyphenyl)carbamoylmethyl]-2-isopropylidenehydrazonothiazolidin-4-one] | 0.3 |
| CCOC(=O)CN1C(=O)C(CC(=O)Nc2ccccc2)SC1=NN=C(C)C (stereo not shown) [Test compound 61, 3-Ethoxycarbonylmethyl-5-(N-phenylcarbamoylmethyl)-2-isopropylidenehydrazonothiazolin-4-one] | 0.91 |
| CC(C)=NN=C1NC(=O)C(CCCCNC(=O)OCc2ccccc2)N1 (stereo not shown) [Test compound 62, 5-(4-Benzyloxycarbonylaminobutyl)-2-isopropylidenehydrazonoimidazolidin-4-one] | 57 |
| CC(C)=NN=C1NC(=O)C(CC(=O)N(C)c2ccccc2)S1 (stereo not shown) [Test compound 65, 2-Isopropylidenehydrazono-5-(N-methyl-N-phenylcarbamoylmethyl)thiazolidin-4-one] | 6.8 |
| CC(C)=NN=C1NC(=O)C(CC(=O)NCc2cccnc2)S1 (stereo not shown) [Test compound 66, 2-Isopropylidenehydrazono-5-[N-(3-pyridylmethyl)carbamoylmethyl]thiazolidin-4-one] | 4.6 |
| CC(C)=NN=C1NC(=O)C(CC(C)C)N1 (stereo not shown) [Test compound 67, 2-Isopropylidenehydrazono-5-(2-methylpropyl)imidazolidin-4-one] | 2.6 |
